The record followed here is US20100104625A1, “BIODEGRADABLE COMPOSITIONS AND MATERIALS” (CORNELL UNIVERSITY, priority 2007, published 2010).

A short description of the series: Sessile contact angle of water on lipid pellet surface. It counts as physicochemical. Particulars: pellets fabricated from each lipid. The protocol: Particle characterization. Particle morphology and size were studied at low voltage (5 kV) using scanning electron microscopy imaging (LEICA 440) after coating with palladium. Surface charge measurements on samples suspended in 1:10 diluted PBS were carried out using a Malvern Zetasizer-Nano ZS (Malvern, UK). A PRECO Hydraulic press (Los Angles, Calif.) was used to make lipid pellets with approximate surface area of 25 mm^2. For contact angle measurements, a ramé-hart contact angle goniometer (100-FO) was used to measure the sessile contact angle of water on a lipid pellet surface. Unless otherwise stated, measurements were taken in triplicate.

In the case of `CCCCCCCC(=O)OCC(=O)COC(=O)CCCCCCC` [C8], the “Hydrophobicity by contact angle of water on lipid surfaces” value was “least hydrophobic”.
